In US6391882B1, “4,5,6 and 7-indole and indoline derivatitives, their preparation and use” (H. Lundbeck A/S, priority 1998, dated 2002) one finds melting point data, which are given here for 39 molecules.

The structures appear in SMILES notation. Counter-ions that a name gives are not always drawn.

For `C#CCn1ccc2c(N3CCN(CCc4c[nH]c5cc(Cl)ccc45)CC3)cccc21`, the melting point was 197 to 199 °C. In turn, `C#CCn1ccc2c(N3CCN(CCc4c[nH]c5ccc(F)cc45)CC3)cccc21` came in with a melting point of 153 to 155 °C. As for `C#CCn1ccc2c(N3CCN(CCc4c[nH]c5ccc(Br)cc45)CC3)cccc21`, the melting point fell in the range of 154 to 156 °C. Regarding `C=CCn1ccc2c(N3CCN(CCc4c[nH]c5ccc(F)cc45)CC3)cccc21` (as salt: fumarate), the melting point lay in the range of 210 to 212 °C. Turning to `C#CCn1ccc2c(N3CCN(CCc4c[nH]c5ccccc45)CC3)cccc21` (as salt: fumarate), the melting point fell in the range of 193 to 195 °C. `Fc1ccc2[nH]cc(CCN3CCN(c4cccc5[nH]ccc45)CC3)c2c1` (as salt: fumarate) [Compound 2c, 1-(2-(5-Fluoro-1H-indol-3-yl)ethyl)-4-(1H-indol-4-yl)piperazine] gave a melting point of 212 to 215 °C. Regarding `Clc1ccc2c(CCN3CC=C(c4cccc5[nH]ccc45)CC3)c[nH]c2c1` (as salt: fumarate) [Compound 2g, 1-(2-(6-Chloro-1H-indol-3-yl)ethyl)-4-(1H-indol-4-yl)-1,2,3,6-tetrahydropyridine], the melting point was 225 to 226 °C. On to `Fc1ccc2[nH]cc(CCN3CC=C(c4cccc5[nH]ccc45)CC3)c2c1` (as salt: fumarate) [Compound 2h, 1-(2-(5-Fluoro-1H-indol-3-yl)ethyl)-4-(1H-indol-4-yl)-1,2,3,6-tetrahydropyridine], for which the melting point lay within 204 to 206 °C. With `Fc1ccc2[nH]cc(CCN3CCN(c4cccc5c4ccn5Cc4ccccc4)CC3)c2c1` (as salt: fumarate) [Compound 2m, 1-(1-Benzyl-1H-indol-4-yl)-4-(2-(5-fluoro-1H-indol-3-yl)ethyl)piperazine] the figure was 178 to 180 °C; with `c1ccc(Cn2ccc3c(N4CCN(CCc5c[nH]c6ccccc56)CC4)cccc32)cc1` (as salt: fumarate) [Compound 2s, 1-(1-Benzyl-1H-indol-4-yl)-4-(2-(1H-indol-3-yl)ethyl)piperazine], 188 to 190 °C. Consider `Brc1ccc2[nH]cc(CCN3CCN(c4ccc5[nH]ccc5c4)CC3)c2c1` (as salt: fumarate) [Compound 2t, 1-(2-(5-Bromo-1H-indol-3-yl)ethyl)-4-(1H-indol-5-yl)piperazine], for which the melting point lay within 231 to 233 °C. As for `Clc1ccc2[nH]cc(CCN3CCN(c4ccc5[nH]ccc5c4)CC3)c2c1` (as salt: fumarate) [Compound 2u, 1-(2-(5-Chloro-1H-indol-3-yl)ethyl)-4-(1H-indol-5-yl)piperazine], the melting point was 232 to 234 °C. On to `N#Cc1c[nH]c2cccc(N3CCN(CCc4c[nH]c5ccccc45)CC3)c12` (as salt: fumarate) [Compound 4m, 1-(3-Cyano-1H-indol-4-yl)-4-(2-(1H-indol-3-yl)ethyl)piperazine], for which the melting point is above 250 °C. Molecule `N#Cc1c[nH]c2cccc(N3CCN(CCc4coc5ccc(F)cc45)CC3)c12` (as salt: fumarate) [Compound 4n, 1-(3-Cyano-1H-indol-4-yl)-4-(2-(5-fluoro-3-benzofuranyl)ethyl)piperazine] returned a melting point of 235 to 237 °C. In turn, `N#Cc1c[nH]c2cccc(N3CCN(CCc4c[nH]c5cc(Cl)ccc45)CC3)c12` (as salt: fumarate) [Compound 4o, 1-(2-(6-Chloro-1H-indol-3-yl)ethyl)-4-(3-cyano-1H-indol-4-yl)piperazine] gave a melting point of 234 to 236 °C. Turning to `Fc1ccc2occ(CCCN3CC=C(c4cccc5[nH]ccc45)CC3)c2c1` (as salt: fumarate) [Compound 4s, 1-(3-(5-Fluoro-3-benzofuranyl)-1-propyl)-4-(1H-indol-4-yl)-1,2,3,6-tetrahydropyridine], the melting point fell in the range of 183 to 185 °C. `N#Cc1c[nH]c2cccc(N3CCN(CCc4c[nH]c5cccc(Cl)c45)CC3)c12` (as salt: fumarate) [Compound 4x, 1-(2-(4-Chloro-1H-indol-3-yl)ethyl)-4-(3-cyano-1H-indol-4-yl)piperazine] returned a melting point above 250 °C. Turning to `Fc1ccc2occ(CCCCN3CCN(c4cccc5[nH]ccc45)CC3)c2c1` (as salt: hydrochloride) [Compound 1d, 1-(4-(5-Fluoro-3-benzofuranyl)-1-butyl)-4-(1H-indol-4-yl)piperazine], the melting point lay in the range of 241 to 244 °C. Turning to `Fc1ccc2occ(CCCN3CCN(c4cccc5[nH]ccc45)CC3)c2c1` (as salt: hydrochloride) [Compound 1h, 1-(3-(5-Fluoro-3-benzofuranyl)-1-propyl)-4-(1H-indol-4-yl)piperazine], the melting point lay in the range of 230 to 234 °C. Consider `Cc1oc2c(F)c(F)c(F)c(F)c2c1CCN1CCN(c2cccc3[nH]ccc23)CC1` (as salt: hydrochloride) [Compound 1i, 1-(2-(2-Methyl-4,5,6,7-tetrafluoro-3-benzofuranyl)ethyl)-4-(1H-indol-4-yl)piperaziine], for which the melting point was 181 to 187 °C. The molecule `Fc1ccc2occ(CN3CCN(c4cccc5[nH]ccc45)CC3)c2c1` (as salt: hydrochloride) [Compound 4l, 1-(5-Fluoro-3-benzofuranylmethyl)-4-(1H-indol-4-4-yl)piperazine] showed a melting point of 238 to 240 °C. On to `Cc1ccc2occ(CCN3CCN(c4cccc5[nH]ccc45)CC3)c2c1` (as salt: hydrochloride) [Compound 4q, 1-(1H-Indol-4-yl)-4-(2-(5-methyl-3-benzofuranyl)ethyl)piperazine], for which the melting point was in the range of 258 to 260 °C.

`c1cc(N2CCN(Cc3coc4ccccc34)CC2)c2cc[nH]c2c1` (as salt: oxalate) [Compound 1b, 1-(3-Benzofuranylmethyl)-4-(1H-indol-4-yl)piperazine] returned a melting point of 226 to 228 °C. Turning to `Fc1ccc2occ(CCN3CCN(c4cccc5[nH]ccc45)CC3)c2c1` (as salt: oxalate) [Compound 1c, 1-(2-(5-Fluoro-3-benzofuranyl)ethyl)-4-(1H-indol-4-yl)piperazine], the melting point is 196 to 197 °C. `c1ccc2c(CCN3CCN(c4cccc5[nH]ccc45)CC3)c[nH]c2c1` (as salt: oxalate) [Compound 1e, 1-(2-(1H-indol-3-yl)ethyl)-4-(1H-indol-4-yl)piperazine] registered a melting point of 167 to 169 °C. Regarding `c1ccc2c(CCCN3CCN(c4cccc5[nH]ccc45)CC3)c[nH]c2c1` (as salt: oxalate) [Compound 1f, 1-(3-(1H-indol-3-yl)-1-propyl)-4-(1H-indol-4-yl)piperazine], the melting point lay in the range of 198 to 204 °C. Molecule `c1ccc2c(CCCCN3CCN(c4cccc5[nH]ccc45)CC3)c[nH]c2c1` (as salt: oxalate) [Compound 1g, 1-(4-(1H-indol-3-yl)-1-butyl)-4-(1H-indol-4yl)piperazine] yielded a melting point of 189 to 193 °C. `c1cc(N2CCN(CCc3n[nH]c4ccccc34)CC2)c2cc[nH]c2c1` (as salt: oxalate) [Compound 1j, 1-(2-(3-Indazolyl)ethyl)-4-(1H-indol-4-yl)piperazine] displayed a melting point of 149 to 151 °C. With `Clc1ccc2c(CCN3CCN(c4cccc5[nH]ccc45)CC3)n[nH]c2c1` (as salt: oxalate) [Compound 1k, 1-(2-(6-Chloro-3-indazolyl)ethyl)-4-(1H-indol-4-yl)piperazine] the figure was 255 to 258 °C; with `N#Cc1cccc2c(CCN3CCN(c4cccc5[nH]ccc45)CC3)c[nH]c12` (as salt: oxalate) [Compound 1l, 1-(2-(7-Cyano-1H-indol-3-yl)ethyl)-4-(1H-indol-4-yl)piperazine], 241 to 243 °C; with `Clc1cccc2[nH]cc(CCN3CCN(c4cccc5[nH]ccc45)CC3)c12` (as salt: oxalate) [Compound 2b, 1-(2-(4-Chloro-1H-indol-3-yl)ethyl)-4-(1H-indol-4-yl)piperazine], 245 to 247 °C.

The molecule `Brc1cccc2c(CCN3CCN(c4cccc5[nH]ccc45)CC3)c[nH]c12` (as salt: oxalate) [Compound 2i, 1-(2-(7-Bromo-1H-indol-3-yl)ethyl)-4-(1H-indol-4-yl)piperazine] registered a melting point of 149 to 151 °C.

Regarding `COC(=O)c1cc(N2CCN(CCc3c[nH]c4ccccc34)CC2)c2cc[nH]c2c1` (as salt: oxalate) [Compound 4f, 1-(2-(1H-indol-3-yl)ethyl)-4-(6-methoxycarbonyl-1H-indol-4-yl)piperazine], the melting point fell in the range of 213 to 216 °C. As for `COC(=O)c1cc(N2CCN(CCc3c[nH]c4cc(Cl)ccc34)CC2)c2cc[nH]c2c1` (as salt: oxalate) [Compound 4g, 1-(2-(6-Chloro-1H-indol-3-yl)ethyl)-4-(6-methoxycarbonyl-1-H-indol-4-yl)piperazine], the melting point was in the range of 228 to 230 °C.

`COC(=O)c1cc(N2CCN(CCc3coc4ccc(F)cc34)CC2)c2cc[nH]c2c1` (as salt: oxalate) [Compound 4h, 1-(2-(5-Fluoro-3-benzofuranyl)ethyl)-4-(6-methoxycarbonyl-1H-indol-4-yl)piperazine] had a melting point of 227 to 228 °C.

Molecule `N#Cc1c[nH]c2cccc(N3CCN(CCc4coc5ccccc45)CC3)c12` (as salt: oxalate) [Compound 4p, 1-(2-(3-Benzofuranyl)ethyl)-4-(3-cyano-1H-indol-4-yl)piperazine] displayed a melting point of 221 to 223 °C.

The molecule `Cc1cccc2occ(CCN3CCN(c4cccc5[nH]ccc45)CC3)c12` (as salt: oxalate) [Compound 4r, 1-(1H-Indol-4-yl)-4-(2-(4-methyl-3-benzofuranyl)ethyl)piperazine] had a melting point of 204 to 206 °C. Consider `Clc1ccc2occ(CCN3CCN(c4cccc5[nH]ccc45)CC3)c2c1` (as salt: oxalate) [Compound 4t, 1-(2-(5-Chloro-3-benzofuranyl)ethyl)-4-(1H-indol-4-yl)piperazine], for which the melting point was in the range of 200 to 202 °C. With `Cc1ccc2c(CCN3CCN(c4cccc5[nH]ccc45)CC3)coc2c1` (as salt: oxalate) [Compound 4u, 1-(1H-Indol-4-yl)-4-(2-(6-methyl-3-benzofuranyl)ethyl)piperazine] the figure was 190 to 192 °C.

What is called melting point is the temperature of the solid-liquid transition.
